In patent US11534412B2, “Application of totarol and pharmaceutical composition containing totarol” (Emergopharm SP. Z O.O. SP.K., priority 2017, dated 2022):

Legend:
Solubility in water = type: physicochemical
[1] = test system: Enterococcus faecalis - clinical strain; experiment: Determination of the MIC value of totarol, broth dilution in 96-well plates with OD and quantitative culture; type: cell-based; settings: for OD, average of 3 measurements: 620 nm
Protocol: Test of antibacterial activity of totarol using DMI (dimethylisosorbide) as a solvent.
1 ml of the suspension was collected to 9 ml of a TSB broth ([…]). Suspensions with a dilution of 10^−6 were prepared in the described way. A suspension with a cell density of 10^5 cfu/ml was selected for further investigations. For each strain, 2 96-well plates were prepared: the first one was intended for the OD measurement, the second one—for quantitative culture on solid media. • A/ to wells B1-D1, B2-D2 and B-D 4-11, 100 µl of the broth were added; • B/ to wells B3-D3, 200 µl of the broth were added; • C/ to wells B1-D1, 1 µl of stock I was added; • D/ to wells B2-D2, 1 µl of stock II was added; • E/ to wells B3-D3, 2 µl of stock III were added. Using a multichannel pipette, 100 µl of the sample were collected from each of the B3-D3 wells and placed in wells B4-D4 (mixing by sucking the content in and letting it out for 5 times). The pipette tips were replaced and 100 µl of the content were collected from of the B4-D4 wells, and placed in wells B5-D5, mixing as previously. These operations were repeated through the wells B11-D11. The content in the B11-D11 wells was mixed, and 100 µl of the fluid were collected and discarded. This way, a series of dilutions of totarol samples in DMI in the range of 0.32% to 0.0004% was obtained. Then, 100 µl of a corresponding bacterial culture were added to the wells B, C, D 1-11. In consequence, a change in the final concentration range occurred, to 0.16%-0.0002%. Control Preparation: • Negative control: 100 µl of the broth+1 pl DMI were added to the Al well. • Positive control (I): 100 µl of the broth with the bacterial culture were added to the wells E1-G1. • Diluent positive control (II): 100 µl of the broth with the bacterial culture+1 pl DMI were added to the wells E2-G2. The OD value in the individual wells was read at the wavelength of 620 nm (read time 0). From the second 96-well plate, a culture was inoculated by a quantitative method from every dilution onto a well with a proper solid medium, and incubated for 24 h at 37° C. under aerobic or anaerobic conditions, depending on the strain. The plates were incubated under aerobic conditions or in an atmosphere of an elevated CO2 concentration (for the strains requiring it) in an incubator at 37° C. The OD was read after 8 h, 16 h, and 24 h, respectively. Before every OD measurement, the contents of the wells were mixed delicately. In parallel to the OD readout, cultures we inoculated from the second 96-well plate, from every dilution, into plates with a proper solid medium, and incubated for 24 h at 37° C., under aerobic or anaerobic conditions. For the analysis of the experimental results, an average value of the OD measurement obtained from three repetitions in the individual times (0, 8, 16, and 24 h) for the individual microbes (Gardnerella vaginalis, Streptococcus agalactiae, Enterococcus faecalis, Lactobacillus gasseri/plantarum) was taken. Additionally, the number of bacteria grown on solid media was taken into account. The results of the tests confirm the specific, concentration-dependent selectiveness, and the high antibacterial effectiveness of totarol against the pathogenic microorganisms: Gardnerella vaginalis, Streptococcus agalactiae, Enterococcus faecalis at low MIC values safe for bacteria of the Lactobacillus genus.

CC(C)c1c(O)ccc2c1CC[C@H]1C(C)(C)CCC[C@]21C [Totarol, totarol]
solubility in water (Solubility in water): complete lack of solubility in water
MIC value ([1]; E. faecalis): 0.0025%
Inoculation cfu/ml ([1]; totarol 0.0002%, 0 h): 4 × 10^5 cfu/ml
OD, average of 3 measurements ([1]; totarol 0.0002%, 0 h): 0.292
Inoculation cfu/ml ([1]; totarol 0.0002%, 8 h): 4.1 × 10^5 cfu/ml
OD, average of 3 measurements ([1]; totarol 0.0002%, 8 h): 0.295
Inoculation cfu/ml ([1]; totarol 0.0002%, 16 h): 2.1 × 10^6 cfu/ml
OD, average of 3 measurements ([1]; totarol 0.0002%, 16 h): 0.490
Inoculation cfu/ml ([1]; totarol 0.0002%, 24 h): 1.6 × 10^7 cfu/ml
OD, average of 3 measurements ([1]; totarol 0.0002%, 24 h): 0.681
Inoculation cfu/ml ([1]; totarol 0.0004%, 0 h): 3 × 10^5 cfu/ml
OD, average of 3 measurements ([1]; totarol 0.0004%, 0 h): 0.298
Inoculation cfu/ml ([1]; totarol 0.0004%, 8 h): 2.1 × 10^5 cfu/ml
OD, average of 3 measurements ([1]; totarol 0.0004%, 8 h): 0.303
Inoculation cfu/ml ([1]; totarol 0.0004%, 16 h): 1.1 × 10^6 cfu/ml
OD, average of 3 measurements ([1]; totarol 0.0004%, 16 h): 0.491
Inoculation cfu/ml ([1]; totarol 0.0004%, 24 h): 1.9 × 10^7 cfu/ml
OD, average of 3 measurements ([1]; totarol 0.0004%, 24 h): 0.677
Inoculation cfu/ml ([1]; totarol 0.0007%, 0 h): 2.5 × 10^5 cfu/ml
OD, average of 3 measurements ([1]; totarol 0.0007%, 0 h): 0.288
Inoculation cfu/ml ([1]; totarol 0.0007%, 8 h): 3.1 × 10^5 cfu/ml
OD, average of 3 measurements ([1]; totarol 0.0007%, 8 h): 0.291
Inoculation cfu/ml ([1]; totarol 0.0007%, 16 h): 3.8 × 10^5 cfu/ml
OD, average of 3 measurements ([1]; totarol 0.0007%, 16 h): 0.445
Inoculation cfu/ml ([1]; totarol 0.0007%, 24 h): 2.1 × 10^7 cfu/ml
OD, average of 3 measurements ([1]; totarol 0.0007%, 24 h): 0.602
Inoculation cfu/ml ([1]; totarol 0.0013%, 0 h): 4 × 10^5 cfu/ml
OD, average of 3 measurements ([1]; totarol 0.0013%, 0 h): 0.293
Inoculation cfu/ml ([1]; totarol 0.0013%, 8 h): 6 × 10^4 cfu/ml
OD, average of 3 measurements ([1]; totarol 0.0013%, 8 h): 0.297
Inoculation cfu/ml ([1]; totarol 0.0013%, 16 h): 6 × 10^4 cfu/ml
OD, average of 3 measurements ([1]; totarol 0.0013%, 16 h): 0.399
Inoculation cfu/ml ([1]; totarol 0.0013%, 24 h): 1 × 10^7 cfu/ml
OD, average of 3 measurements ([1]; totarol 0.0013%, 24 h): 0.549
Inoculation cfu/ml ([1]; totarol 0.0025%, 0 h): 5 × 10^5 cfu/ml
OD, average of 3 measurements ([1]; totarol 0.0025%, 0 h): 0.284
Inoculation cfu/ml ([1]; totarol 0.0025%, 8 h): 0 cfu/ml
OD, average of 3 measurements ([1]; totarol 0.0025%, 8 h): 0.297
Inoculation cfu/ml ([1]; totarol 0.0025%, 16 h): 0 cfu/ml
OD, average of 3 measurements ([1]; totarol 0.0025%, 16 h): 0.295
Inoculation cfu/ml ([1]; totarol 0.0025%, 24 h): 0 cfu/ml
OD, average of 3 measurements ([1]; totarol 0.0025%, 24 h): 0.302
Inoculation cfu/ml ([1]; totarol 0.005%, 0 h): 6 × 10^5 cfu/ml
OD, average of 3 measurements ([1]; totarol 0.005%, 0 h): 0.302
Inoculation cfu/ml ([1]; totarol 0.005%, 8 h): 0 cfu/ml
OD, average of 3 measurements ([1]; totarol 0.005%, 8 h): 0.349
Inoculation cfu/ml ([1]; totarol 0.005%, 16 h): 0 cfu/ml
OD, average of 3 measurements ([1]; totarol 0.005%, 16 h): 0.320
Inoculation cfu/ml ([1]; totarol 0.005%, 24 h): 0 cfu/ml
OD, average of 3 measurements ([1]; totarol 0.005%, 24 h): 0.296
Inoculation cfu/ml ([1]; totarol 0.01%, 0 h): 4.1 × 10^5 cfu/ml
OD, average of 3 measurements ([1]; totarol 0.01%, 0 h): 0.302
Inoculation cfu/ml ([1]; totarol 0.01%, 8 h): 0 cfu/ml
OD, average of 3 measurements ([1]; totarol 0.01%, 8 h): 0.419
Inoculation cfu/ml ([1]; totarol 0.01%, 16 h): 0 cfu/ml
OD, average of 3 measurements ([1]; totarol 0.01%, 16 h): 0.368
Inoculation cfu/ml ([1]; totarol 0.01%, 24 h): 0 cfu/ml
OD, average of 3 measurements ([1]; totarol 0.01%, 24 h): 0.306
Inoculation cfu/ml ([1]; totarol 0.02%, 0 h): 3.1 × 10^5 cfu/ml
OD, average of 3 measurements ([1]; totarol 0.02%, 0 h): 0.322
Inoculation cfu/ml ([1]; totarol 0.02%, 8 h): 0 cfu/ml
OD, average of 3 measurements ([1]; totarol 0.02%, 8 h): 0.384
Inoculation cfu/ml ([1]; totarol 0.02%, 16 h): 0 cfu/ml
OD, average of 3 measurements ([1]; totarol 0.02%, 16 h): 0.374
Inoculation cfu/ml ([1]; totarol 0.02%, 24 h): 0 cfu/ml
OD, average of 3 measurements ([1]; totarol 0.02%, 24 h): 0.371
Inoculation cfu/ml ([1]; totarol 0.04%, 0 h): 2.6 × 10^5 cfu/ml
OD, average of 3 measurements ([1]; totarol 0.04%, 0 h): 0.552
Inoculation cfu/ml ([1]; totarol 0.04%, 8 h): 0 cfu/ml
OD, average of 3 measurements ([1]; totarol 0.04%, 8 h): 0.667
Inoculation cfu/ml ([1]; totarol 0.04%, 16 h): 0 cfu/ml
OD, average of 3 measurements ([1]; totarol 0.04%, 16 h): 0.555
Inoculation cfu/ml ([1]; totarol 0.04%, 24 h): 0 cfu/ml
OD, average of 3 measurements ([1]; totarol 0.04%, 24 h): 0.538
Inoculation cfu/ml ([1]; totarol 0.08%, 0 h): 3.2 × 10^5 cfu/ml
OD, average of 3 measurements ([1]; totarol 0.08%, 0 h): 0.448
Inoculation cfu/ml ([1]; totarol 0.08%, 8 h): 0 cfu/ml
OD, average of 3 measurements ([1]; totarol 0.08%, 8 h): 0.539
Inoculation cfu/ml ([1]; totarol 0.08%, 16 h): 0 cfu/ml
OD, average of 3 measurements ([1]; totarol 0.08%, 16 h): 0.499
Inoculation cfu/ml ([1]; totarol 0.08%, 24 h): 0 cfu/ml
OD, average of 3 measurements ([1]; totarol 0.08%, 24 h): 0.491
Inoculation cfu/ml ([1]; totarol 0.16%, 0 h): 6 × 10^5 cfu/ml
OD, average of 3 measurements ([1]; totarol 0.16%, 0 h): 0.638
Inoculation cfu/ml ([1]; totarol 0.16%, 8 h): 0 cfu/ml
OD, average of 3 measurements ([1]; totarol 0.16%, 8 h): 0.651
Inoculation cfu/ml ([1]; totarol 0.16%, 16 h): 0 cfu/ml
OD, average of 3 measurements ([1]; totarol 0.16%, 16 h): 0.510
Inoculation cfu/ml ([1]; totarol 0.16%, 24 h): 0 cfu/ml
OD, average of 3 measurements ([1]; totarol 0.16%, 24 h): 0.369
